Reference: the NIST ThermoML archive (doi:10.1016/j.fluid.2007.09.023)

Assay: molar heat capacity at constant volume
Settings: Vacuum adiabatic calorimetry

Cc1ccccc1 [toluene]
Fluid (supercritical or subcritical phases)
Settings | molar heat capacity at constant volume [J/K/mol]
386.9 K, Mass density=777.8 kg/m3 | 147.79
387.48 K, Mass density=777.8 kg/m3 | 147.7
387.84 K, Mass density=777.8 kg/m3 | 146.41
388.65 K, Mass density=777.8 kg/m3 | 146.96
392.83 K, Mass density=777.8 kg/m3 | 145.67
393.6 K, Mass density=777.8 kg/m3 | 144.01
399.34 K, Mass density=777.8 kg/m3 | 146.68
411.33 K, Mass density=777.8 kg/m3 | 148.9
413.55 K, Mass density=777.8 kg/m3 | 149.08
545.3 K, Mass density=555.25 kg/m3 | 189.99
545.51 K, Mass density=555.25 kg/m3 | 189.07
545.84 K, Mass density=555.25 kg/m3 | 188.79
545.93 K, Mass density=555.25 kg/m3 | 189.44
548.72 K, Mass density=555.25 kg/m3 | 187.41
549.32 K, Mass density=555.25 kg/m3 | 189.25
550.41 K, Mass density=555.25 kg/m3 | 188.52
589.54 K, Mass density=214.64 kg/m3 | 349.57
589.66 K, Mass density=214.64 kg/m3 | 307.47
589.72 K, Mass density=214.64 kg/m3 | 299.45
589.84 K, Mass density=214.64 kg/m3 | 280.47
590.03 K, Mass density=214.64 kg/m3 | 271.9
590.09 K, Mass density=214.64 kg/m3 | 264.9
590.51 K, Mass density=214.64 kg/m3 | 250.8
590.58 K, Mass density=214.64 kg/m3 | 252.92

molar heat capacity at constant volume [J/K/mol]
Settings | 386.9 K | 545.3 K | 589.54 K | 591.72 K | 591.84 K | 591.85 K | 591.87 K | 591.88 K
Gas | – | – | 349.57 | 385.6 | 425.4 | – | – | –
Liquid | 147.79 | 189.99 | – | – | – | 331.51 | 422.18 | 442.26
